Results: patent US20130055471A1, “Transgenic Ozone-Resistant Plants” (priority 2009, published 2013)
“Also recorded” adds a separate entry of the source.

What was measured:
Rice = experiment: Full leaf Rice Total Dark Respiration (TDR) measurements; assay type: in vivo, Oryza sativa L.
Source text: (§1) Ozone generators (model OP-35-3P, Grupo Interozone, Brazil) were coupled to ozone monitors (model 202, 2B Technologies, Inc. […] Crops Advance Brazil). […] This was used as the upper limit for phytotron number one. […] Ozone levels of phytotron number two and three were permanently measured at 10 second intervals and averaged per minute. Each ozone monitor fed averaged values over an analog output to an ozone monitor-ozone generator interface. Hysteresis was set at +/-5 ppbv. Ozone levels were monitored close to the inlet of the two internal circulation ventilators. The ozone generators were adapted to accept an external digital signal from the interface. Respiration of plant material was tested as follows: Partial oxygen pressure drops due to oxygen consumption as result of dark respiration were measured using phase shift fluorescence measurement. For this, a NeoFoxTM Phase Measurement System was used (Fluorometer Bench version using a […] laboratory-grade bifurcated optical fiber with FOXY-R-8 cm overcoated fluorescence oxygen needle sensor, Ocean Optics Inc. USA). Fluorescence phase shift was expressed as Tau in microseconds (μs) and has an inverse and linear relation with the partial oxygen pressure. […] In addition, full leaf Total Dark Respiration (TDR) measurements without the use of any pre-treatment solution (no SHAM and pretreatment control) were executed for cotton, corn and rice. Data (tables 2, 3 and 4) show clear positive correlation between a) total respiration per unit of fresh weight and ozone level, and b) total respiration per unit of dry weight and ozone level.

Cotton [1] = experiment: Total dark respiration and SHAM-sensitive AOX by phase shift fluorescence, cotton leaf sections; assay type: in vivo, Gossypium spp.; settings: for increase of AOX respiration compared to the initial AOX respiration rate: ontogenic phase in 0 ppbv ozone ambient
Source text: All plantings were done at day 0. shifting plants to new ozone background for all plants=day 70. […] 60 ppb plants after 8 days (=day 78) in 0 ppb still act as if in 60 ppb. Sugar Cane: plants from 0 ppb, after having their first 70 days of development in 0 ppb, stayed for the nex 33 days (till day 103) in 60 ppb before being placed back in their original 0 ppb.
Ozone generators (model OP-35-3P, Grupo Interozone, Brazil) were coupled to ozone monitors (model 202, 2B Technologies, Inc. USA; dynamic range of 1.5 ppbv to 100 ppmv of ozone; precision 1.5 ppbv or 2% of the reading) using a ozone monitor—generator interface (Engineering dep. Crops Advance Brazil). […] This was used as the upper limit for phytotron number one. Phytotron number two was set at 30 ppbv average ozone. Phytotron number three was set at 60 ppbv average ozone. Ozone levels of phytotron number two and three were permanently measured at 10 second intervals and averaged per minute. Each ozone monitor fed averaged values over an analog output to an ozone monitor—ozone generator interface. Hysteresis was set at +/−5 ppbv. Ozone levels were monitored close to the inlet of the two internal circulation ventilators. The ozone generators were adapted to accept an external digital signal from the interface.
Respiration of plant material was tested as follows: Partial oxygen pressure drops due to oxygen consumption as result of dark respiration were measured using phase shift fluorescence measurement. For this, a NeoFox™ Phase Measurement System was used (Fluorometer Bench version using a QBIF600-VIS-NIR laboratory-grade bifurcated optical fiber with FOXY-R-8 cm overcoated fluorescence oxygen needle sensor, Ocean Optics Inc. USA).
Fluorescence phase shift was expressed as Tau in microseconds (μs) and has an inverse and linear relation with the partial oxygen pressure.
Salicylhydroxamic acid (SHAM) (99%, Sigma-Aldrich Brasil Ltda. Sao Paulo, Brazil) was used as an AOX inhibitor. The soluble sodium salicylhydroxamate salt was prepared by titrating SHAM with 0.1 M sodium hydroxide until neural pH. A stock solution ([…]) was prepared containing 300 ml/L ethanol from initial dissolving SHAM (same abbreviation is used for the salicylhydroxamate salt). From the stock solution a 20 mmol/L salicylhydroxamate final test solution was prepared by taking 12.3 ml stock solution and completing till 100 ml with a phosphate buffer solution (pH 7). The final SHAM test solution thus contained 3.7% residual ethanol. For proper control, the comparative test solution was also provided with 3.7 ml of ethanol per 100 ml of phosphate buffer solution (pH 7). To both solutions two drops of wetting agent (Silwet L-77 AG, GE Silicones Inc. USA) were added per 25 ml of test solution.
Plant material collected was always the first fully grown leaf counting from the apical point downwards or outwards (e.g. for monocotyls). […] Per test, four leafs from four different plants were sampled. Cotton leafs were cut in half along the mid nerve. Using a clipper, 16 leaf sections of equal surface area of 400.9 mm2 each were cut, one from each base half and one from each top half part giving 4 sections per leaf and 16 sections per test. The leaf sections were distributed equally over two sub samples, one with and one without salicylhydroxamate. Using a chirurgical blade, all sections were given 7 parallel cuts (through and through) at approximately 2.5 mm apart over almost the full length of the section to guarantee lateral infiltration of the test solutions and gas exchange.
Within 10 minutes of plant sampling the sections were cut, initial subsample weight was registered using a high precision laboratory scale and the subsamples were placed in their solutions with and without salicylhydroxamate for 60 minutes in the dark, to guarantee dark adaptation.
Each sample contained 4 leaves, 4 sections per leaf providing 16 sections, 8 per subsample. […]

Cotton [2] = experiment: Full leaf Cotton Total Dark Respiration (TDR) measurements; assay type: in vivo, Gossypium spp.
Source text: as §1

Sugarcane plants = experiment: AOX and total dark respiration in sugarcane exposed to various levels of ozone; assay type: in vivo, Saccharum spp.; settings: for relative AOX, integration of the parabolic function yields / absolute AOX, integration of the parabolic function yields: 60 ppbv
Source text: For sugarcane 4 plantlets per pot were provided and these plantlets were transplanted from the agar following washing of their root system with nutrient solution (see below) in order to remove residual agar. Every sugar cane pot was provided with a dome consisting of a 5 litre water flask (PP) of which the bottom was removed creating a 30 cm high dome. Crepe-tape was used to provide an air-tight connection between the bottom rim of the flask and the planting pot. The 40 mm screw cap on top functioned as a ventilation valve, initially maintaining near 100% RV to prevent the plantlets from drying out. Directly after transplanting, the sugar cane plantlets were placed in a phytotron (4 pots per phytotron) more in particular in acrylic cabinets created therein (see below). The sugar cane domes were removed 10 days after transplanting. All plantings were done at day 0. shifting plants to new ozone background for all plants=day 70. […] 60 ppb plants after 8 days (=day 78) in 0 ppb still act as if in 60 ppb. Sugar Cane: plants from 0 ppb, after having their first 70 days of development in 0 ppb, stayed for the nex 33 days (till day 103) in 60 ppb before being placed back in their original 0 ppb. […] Sugarcane plants were grown in the same manner as described above in Example 2. The AOX and total dark respiration were measured for plants exposed to various levels of ozone as described above in Example 2.

Corn = experiment: Full leaf Corn Total Dark Respiration (TDR) measurements; assay type: in vivo, Zea mays L.
Source text: as §1

[3] = ozone concentration during growth 30 ppbv
[4] = ozone concentration during growth 60 ppbv
[5] = 0 →30 ppbv ozone: plants grown in 0 ppvb O3 and transferred to 30 ppvb O3
[6] = 0 →60 ppbv ozone: plants grown in 0 ppvb O3 and transferred to 60 ppvb O3 (day 70, 7 days)
[7] = 0 →60 →0 ppbv ozone: grown in 0 ppvb O3, transferred to 60 ppvb O3 and transferred back to 0 ppvb O3
[8] = 60 →0 ppbv ozone: plants grown in 60 ppvb O3 and transferred to 0 ppvb O3 (day 70, 8 days)

O=[O+][O-] [ozone]
Normalized dark respiration activity (dwt) (Rice; [3]): 8.2 h/Tau/g dry weigth/40 ml | Normalized dark respiration activity (fwt) (Rice; [3]): 29.2 h/Tau/g fresh weigth/40 ml | Normalized dark respiration activity (dwt) (Rice; [4]): 7.6 h/Tau/g dry weigth/40 ml | Normalized dark respiration activity (fwt) (Rice; [4]): 29.4 h/Tau/g fresh weigth/40 ml | AOX component (arb units) (Cotton [1]; [5]): 3.26 arb units | AOX/TDR (Cotton [1]; [5]): 30.3% | AOX/TDR relative to initial equilibrium (Cotton [1]; [5]): 116.5% | TDR excl AOX dTau/t (μs/s) without SHAM (Cotton [1]; [5]): 7.51E−06 μs/s | TDR incl AOX dTau/t (μs/s) with SHAM (Cotton [1]; [5]): 1.08E−05 μs/s | AOX component (arb units) (Cotton [1]; [6]): 3.77 arb units | AOX/TDR (Cotton [1]; [6]): 39.6% | AOX/TDR relative to initial equilibrium (Cotton [1]; [6]): 152.5% | TDR excl AOX dTau/t (μs/s) without SHAM (Cotton [1]; [6]): 5.75E−06 μs/s | TDR incl AOX dTau/t (μs/s) with SHAM (Cotton [1]; [6]): 9.52E−06 μs/s | AOX component (arb units) (Cotton [1]; [7]): 2.95 arb units | AOX/TDR (Cotton [1]; [7]): 25.0% | AOX/TDR relative to initial equilibrium (Cotton [1]; [7]): 96.2% | TDR excl AOX dTau/t (μs/s) without SHAM (Cotton [1]; [7]): 8.87E−06 μs/s | TDR incl AOX dTau/t (μs/s) with SHAM (Cotton [1]; [7]): 1.18E−05 μs/s | AOX component (arb units) (Cotton [1]; [8]): 3.97 arb units | AOX/TDR (Cotton [1]; [8]): 35.8% | AOX/TDR relative to initial equilibrium (Cotton [1]; [8]): 100.5% | TDR excl AOX dTau/t (μs/s) without SHAM (Cotton [1]; [8]): 7.13E−06 μs/s | TDR incl AOX dTau/t (μs/s) with SHAM (Cotton [1]; [8]): 1.11E−05 μs/s | increase of AOX respiration compared to the initial AOX respiration rate (Cotton [1]; placed in the 30 ppbv ozone ambient): 16.5% | increase of AOX respiration compared to the initial AOX respiration rate (Cotton [1]; placed in the 60 ppbv ozone ambient): 52.5% | AOX respiration after return to the 0 ppbv ozone ambient (Cotton [1]; ontogenic phase in 0 ppbv, passed time in the 60 ppbv ozone ambient): returned fully to its initial level | AOX component (arb units) (Cotton [1]; plants grown in 30 ppvb O3): 2.97 arb units | AOX/TDR (Cotton [1]; plants grown in 30 ppvb O3): 29.9% | TDR excl AOX dTau/t (μs/s) without SHAM (Cotton [1]; plants grown in 30 ppvb O3): 6.96E−06 μs/s | TDR incl AOX dTau/t (μs/s) with SHAM (Cotton [1]; plants grown in 30 ppvb O3): 9.93E−06 μs/s | AOX component (arb units) (Cotton [1]; plants grown in 60 ppvb O3): 3.33 arb units | AOX/TDR (Cotton [1]; plants grown in 60 ppvb O3): 35.6% | AOX/TDR relative to initial equilibrium (Cotton [1]; plants grown in 60 ppvb O3): 100.0% | TDR excl AOX dTau/t (μs/s) without SHAM (Cotton [1]; plants grown in 60 ppvb O3): 6.03E−06 μs/s | TDR incl AOX dTau/t (μs/s) with SHAM (Cotton [1]; plants grown in 60 ppvb O3): 9.36E−06 μs/s | AOX respiration during stay in the zero ozone level ambient (Cotton [1]; plants grown up in the 60 ppbv ozone level ambient): did not lower their AOX respiration | Normalized dark respiration activity (dwt) (Cotton [2]; [3]): 13.4 h/Tau/g dry weigth/40 ml | Normalized dark respiration activity (fwt) (Cotton [2]; [3]): 72.6 h/Tau/g fresh weigth/40 ml | Normalized dark respiration activity (dwt) (Cotton [2]; [4]): 12.7 h/Tau/g dry weigth/40 ml | Normalized dark respiration activity (fwt) (Cotton [2]; [4]): 67.9 h/Tau/g fresh weigth/40 ml | relative AOX, integration of the parabolic function yields (Sugarcane plants; Time of Day 5.3): 0.0% | absolute AOX, integration of the parabolic function yields (Sugarcane plants; Time of Day 5.6): 0.0 | absolute AOX, integration of the parabolic function yields (Sugarcane plants; Time of Day 23.0): 51.9 | relative AOX, integration of the parabolic function yields (Sugarcane plants; Time of Day 24.3): 436% | AOX at 10:00 am (% of TDR) (Sugarcane plants; 70 days 0 ppbv, 33 days at 60 ppbv, returned to 0 ppbv, after 5 days): approximately 5 % of TDR | AOX at about 10:00 am (% of TDR) (Sugarcane plants; 70 days 0 ppbv, 33 days at 60 ppbv, then returned to 0 ppbv, first): approximately 35 % of TDR | AOX level after shift to 0 ppbv (Sugarcane plants; 70 days at 60 ppbv, thereafter 33 days in 0 ppbv): maintained their 60 ppb AOX levels; also recorded: maintain their high AOX; also recorded: consistently high AOX levels | AOX 60 ppbv/AOX 0 ppbv (dTau/dt/dTau/dt) (Sugarcane plants; absolute AOX): 169% | AOX 60 ppbv/AOX 0 ppbv (%/%) (Sugarcane plants; relative AOX): 154% | Normalized dark respiration activity (dwt) (Corn; [3]): 14.7 h/Tau/g dry weigth/40 ml | Normalized dark respiration activity (fwt) (Corn; [3]): 78.3 h/Tau/g fresh weigth/40 ml | Normalized dark respiration activity (dwt) (Corn; [4]): 14.5 h/Tau/g dry weigth/40 ml | Normalized dark respiration activity (fwt) (Corn; [4]): 72.1 h/Tau/g fresh weigth/40 ml
